# Legend:
# [1] = Example 2 multiple rising dose inhaled delta-9-THC study: plasma pharmacokinetics
# Description: A randomized, double-blind, placebo-controlled, multiple rising dose safety, tolerability, pharmacokinetic and pharmacodynamic study to assess two dose levels of inhaled delta-9-THC was conducted. Dose levels were studied in ascending order. Two consecutive groups (n=9/group) of healthy subjects were studied (Groups I and II). […] There was a lapse of at least 10 days between the groups for interim safety and pharmacokinetic analysis. Two dose levels were studied in ascending order. […] Subjects in each treatment Group (I or II) received single and multiple doses of inhaled delta-9-THC according to the following schedule:
# For both dose levels, the first and the last dose of study drug was given under fasted conditions. Subjects were confined to the study site from the evening of Day −2 (Day 1 is the day of administration of the first dose of study drug) until the 120-hour blood sample following the final dose of study drug, resulting in an 18-day confinement period for subjects in Group I and a 25-day confinement period for Group II. Between the completion of Group I and the start of Group II, an interim safety and pharmacokinetic analysis was performed. Based on the results of the interim analyses, the dose level for investigation in Group II was determined.
# Two MDI dosage strengths were used corresponding to the same formulations used in Example 1: one delivering 0.3 mg delta-9-THC (or placebo) per actuation and one delivering 1.2 mg delta-9-THC (or placebo) per actuation. The MDI consisted of a pressurized (via propellants) container and a metered-dose valve. The propellants provided the necessary force to expel the drug, and also acted as a solvent and diluent. The canister unit was provided within a mouthpiece (oral adapter), to expel an exact amount of drug, in the proper particle size distribution, upon each actuation. Two basic formulations containing 0.3 and 1.2 mg of delta-9-THC per 50 μL were developed with propellant 1,1,1,2 tetrafluoroethane 134a (HFA 134a), and ethanol as solvent. The formulations were made in accordance with the composition used in Example 1.
# (§1) Whole blood samples were collected according to the assessment flowchart in EDTA tubes through venepuncture or indwelling catheter. Samples were immediately placed on ice and subsequently centrifuged within 30 minutes at 1,500 g for 10 minutes. Plasma was transferred into a 5 ml screw cap polypropylene tube, stoppered and stored at below minus 20° C. until transfer to the analytical laboratory for analysis. […] The measurement ranges were 0.05-30 ng/ml for delta-9-THC, 0.04-30 ng/ml for 11-OH-THC, and 0.25-10 ng/ml for THC-COOH.
# For Example 2: The statistical analysis encompassed an exploratory analysis of the single and multiple dose pharmacokinetics and dose proportionality of two dose levels of inhaled delta-9-THC in healthy subjects. Descriptive statistics included number of subjects, mean, standard deviation, coefficient of variation (%) and geometric mean for all pharmacokinetic parameters.
# The exploratory analysis was performed on the logarithms of the dose-normalized pharmacokinetic parameters AUC(0-inf), AUC(0-t), AUC(0-τ) and Cmax. Dose proportionality was tested both at single dose and at multiple dose (steady state) by comparing the dose groups for all pharmacokinetic parameters by an analysis of variance with dose as fixed effect.
# Dose proportionality was tested by the contrast between the dose groups. For this contrast on the logarithmic scale, p-values were given. After anti-logarithmic transformation, the resultant ratios of geometric means and 90% confidence intervals were given.
# Accumulation was tested by comparing the steady state values for AUC(0-τ) with the single dose values for AUC(0-τ) by a mixed model analysis of variance with dose and day (with levels single dose and steady state) as fixed effects and subject within dose as random effect.
# [2] = Example 1 single rising dose inhaled delta-9-THC study: plasma pharmacokinetics
# Description: A randomized, double blind, placebo controlled, three way crossover, single rising dose human clinical study in two sequential groups (Groups I and II) of nine young healthy male subjects (18-45 years of age and body mass index (BMI) of 20-26 kg/m^2) of a metered dose inhalation composition according to one embodiment the present invention was conducted. Each subject received two ascending single doses of inhaled delta-9-THC and one single dose of inhaled placebo according to a three-way crossover balanced incomplete block design. The administered composition is detailed in Table 1. Composition I provides 0.3 mg per actuation, while Composition II provides 1.2 mg per actuation.
# Each sequential dose level or period was separated by a washout period of two weeks, during which an interim safety and pharmacokinetic analysis was performed. A third group (Group III) of nine elderly healthy male and female subjects (65-80 years old and BMI 18-30 kg/m^2) was added after completion of the sixth study period to participate in a single treatment period. […] Five dose levels were evaluated: 0.3 mg, 1.2 mg, and 2.4 mg in Group I, 3.6 mg, 7.2 mg, and 9.6 mg in Group II, and 3.6 mg in Group III. Subjects were confined to the study center from the day prior to dosing until the 48 hour blood sample. Subjects returned to the center for 72, 96 and 120 hour pharmacokinetic samples. Various pharmacokinetic and pharmacodynamic measurements and sampling were taken according to the Assessment Flow Charts in FIG. 1 and FIG. 2. Safety was measured by monitoring adverse events, physical examination, clinical laboratory and pulmonary function tests, vital signs, 12 lead ECG, and telemetry.
# Safety, pharmacokinetic and pharmacodynamic variables were estimated. Plasma concentrations of delta-9-THC (THC), 11-hydroxy-tetrahydrocanabinol (11-OH-THC) and delta-9-tetrahydrocannbinol-carboxylic acid (THC-COOH) were determined for pharmacokinetic analysis.
# as §1
# Number of subjects, mean, standard deviation, coefficient variable (%) and geometric mean were calculated for all pharmacokinetic parameters.
# For Example 1: A mixed ANOVA model with group and dose fixed effect and subject within group by dose as random effect was performed on the logarithms of the dose normalized pharmacokinetic parameters AUC, AUC0-t and Cmax. The overall treatment effect was tested by conventional F-test with Satterthwaites correction. Dose proportionality was tested using Helmert Contrasts and Reverse Helmert Contrasts. The within and between subject coefficient of variances were calculated from the estimated covariance parameters. Per dose level geometric means with 90% confidence interval were calculated for the dose-normalized values from the least squared means analysis outcomes. The difference between young and elderly subjects was explored using a one-way ANOVA.
smiles,measurement,setting,value
"CCCCCc1cc(O)c2c(c1)OC(C)(C)C1CCC(CO)=CC21 (stereo not shown) [11-OH-THC, 11-hydroxy-tetrahydrocanabinol]",achievement of steady state,[1]; 1.2 mg delta-9-THC three times daily,apparently reached after six days of dosing
same,"Cmax, Geometric Mean (Range)","[1]; 1.2 mg m.d. (three times daily), Day 12, Group I",0.54 (0.26-1.26) ng/mL
same,"AUC(0-8), Arithmetic Mean (SD)","[1]; 1.2 mg m.d., Day 12, Group I",2.07 (0.99) ng · h/mL
same,"AUC(0-8), Geometric Mean (Range)","[1]; 1.2 mg m.d., Day 12, Group I",1.89 (1.13-3.48) ng · h/mL
same,"Cmax, Arithmetic Mean (SD)","[1]; 1.2 mg m.d., Day 12, Group I",0.61 (0.36) ng/mL
same,"tmax, Arithmetic Mean (SD)","[1]; 1.2 mg m.d., Day 12, Group I",0.48 (0.36) h
same,"tmax, median (range)","[1]; 1.2 mg m.d., Day 12, Group I",0.42 (0.17-1.00) h
same,"t½, Arithmetic Mean (SD)","[1]; 1.2 mg m.d., Day 12, Group I",14.9 (6.08) h
same,"t½, Geometric Mean (Range)","[1]; 1.2 mg m.d., Day 12, Group I",13.9 (7.41-25.2) h
same,"AUC(0-8), Arithmetic Mean (SD)","[1]; 1.2 mg s.d., Day 1",1.50 (0.88) ng · h/mL
same,"AUC(0-8), Geometric Mean (Range)","[1]; 1.2 mg s.d., Day 1",1.26 (0.41-2.66) ng · h/mL
same,"AUC(0-inf), Arithmetic Mean (SD)","[1]; 1.2 mg s.d., Day 1",1.93 (1.22) ng · h/mL
same,"AUC(0-inf), Geometric Mean (Range)","[1]; 1.2 mg s.d., Day 1",1.56 (0.49-3.39) ng · h/mL
same,"tmax, Arithmetic Mean (SD)","[1]; 1.2 mg s.d., Day 1",0.48 (0.75) h
same,"tmax, median (range)","[1]; 1.2 mg s.d., Day 1",0.17 (0.17-2.00) h
same,"t½, Arithmetic Mean (SD)","[1]; 1.2 mg s.d., Day 1",4.19 (1.67) h
same,"t½, Geometric Mean (Range)","[1]; 1.2 mg s.d., Day 1",3.91 (2.55-6.01) h
same,"Cmax, Arithmetic Mean (SD)","[1]; 1.2 mg s.d., Day 1, plasma",0.86 (0.57) ng/mL
same,"Cmax, Geometric Mean (Range)","[1]; 1.2 mg s.d., Day 1, plasma",0.63 (0.10-1.55) ng/mL
same,"Cmax, Geometric Mean (Range)","[1]; 3.6 mg m.d. (three times daily), Day 19, Group II",2.87 (1.27-6.97) ng/mL
same,"AUC(0-8), Arithmetic Mean (SD)","[1]; 3.6 mg m.d., Day 19, Group II",10.1 (6.13) ng · h/mL
same,"AUC(0-8), Geometric Mean (Range)","[1]; 3.6 mg m.d., Day 19, Group II",8.69 (4.06-19.8) ng · h/mL
same,"Cmax, Arithmetic Mean (SD)","[1]; 3.6 mg m.d., Day 19, Group II",3.40 (2.17) ng/mL
same,"tmax, Arithmetic Mean (SD)","[1]; 3.6 mg m.d., Day 19, Group II",0.27 (0.20) h
same,"tmax, median (range)","[1]; 3.6 mg m.d., Day 19, Group II",0.17 (0.17-0.67) h
same,"t½, Arithmetic Mean (SD)","[1]; 3.6 mg m.d., Day 19, Group II",57.3 (37.9) h
same,"t½, Geometric Mean (Range)","[1]; 3.6 mg m.d., Day 19, Group II",39.5 (5.65-94.2) h
same,"AUC(0-8), Arithmetic Mean (SD)","[1]; 3.6 mg s.d., Day 1",5.15 (3.04) ng · h/mL
same,"AUC(0-8), Geometric Mean (Range)","[1]; 3.6 mg s.d., Day 1",4.44 (2.22-9.46) ng · h/mL
same,"AUC(0-inf), Arithmetic Mean (SD)","[1]; 3.6 mg s.d., Day 1",6.82 (3.98) ng · h/mL
same,"AUC(0-inf), Geometric Mean (Range)","[1]; 3.6 mg s.d., Day 1",5.86 (3.03-11.6) ng · h/mL
same,"tmax, Arithmetic Mean (SD)","[1]; 3.6 mg s.d., Day 1",0.18 (0.01) h
same,"tmax, median (range)","[1]; 3.6 mg s.d., Day 1",0.17 (0.17-0.20) h
same,"t½, Arithmetic Mean (SD)","[1]; 3.6 mg s.d., Day 1",5.98 (2.91) h
same,"t½, Geometric Mean (Range)","[1]; 3.6 mg s.d., Day 1",5.44 (2.96-11.0) h
same,"Cmax, Arithmetic Mean (SD)","[1]; 3.6 mg s.d., Day 1, plasma",2.21 (1.37) ng/mL
same,"Cmax, Geometric Mean (Range)","[1]; 3.6 mg s.d., Day 1, plasma",1.91 (1.12-4.38) ng/mL
same,achievement of steady state,[1]; 3.6-mg dose level three times daily,achieved after seven or eight days of dosing
same,accumulation during multiple dosing,[1]; 8-hours dosing interval,accumulation occurred during multiple dosing
same,"Ratio AUC(0-8) m.d./AUC(0-8) s.d. (Accumulation factor), Mean","[1]; Group I, 1.2 mg",1.59
same,"Ratio AUC(0-8) m.d./AUC(0-inf) s.d. (Linearity), Mean","[1]; Group I, 1.2 mg",1.30
same,"Ratio AUC(0-8) m.d./AUC(0-8) s.d. (Accumulation factor), Mean","[1]; Group II, 3.6 mg",2.10
same,"Ratio AUC(0-8) m.d./AUC(0-inf) s.d. (Linearity), Mean","[1]; Group II, 3.6 mg",1.55
same,dose proportionality: geometric mean ratio (3.6 mg:1.2 mg) of dose-normalized AUC(0-8) (90% confidence interval),[1]; Multiple dose,1.53 (0.87-2.69)
same,dose proportionality: geometric mean ratio (3.6 mg:1.2 mg) of dose-normalized Cmax (90% confidence interval),[1]; Multiple dose,1.79 (0.95-3.36)
same,dose proportionality: geometric mean ratio (3.6 mg:1.2 mg) of dose-normalized AUC(0-8) (90% confidence interval),[1]; Single dose,1.18 (0.60-2.33)
same,dose proportionality: geometric mean ratio (3.6 mg:1.2 mg) of dose-normalized AUC(0-inf) (90% confidence interval),[1]; Single dose,1.25 (0.61-2.57)
same,dose proportionality: geometric mean ratio (3.6 mg:1.2 mg) of dose-normalized AUC(0-t) (90% confidence interval),[1]; Single dose,1.43 (0.64-3.20)
same,dose proportionality: geometric mean ratio (3.6 mg:1.2 mg) of dose-normalized Cmax (90% confidence interval),[1]; Single dose,1.01 (0.42-2.42)
same,"Cmax, fold lower compared to the parent compound",[1]; after multiple dosing,~13 fold
same,exposure compared to the parent drug (AUC(0-8)),[1]; after multiple dosing,approximately two-fold lower
same,"Cmax, fold lower compared to the parent compound",[1]; after single dosing,approximately 25 fold
same,dose proportionality of pharmacokinetic parameters,[1]; after single or multiple dose administration,not found to deviate significantly
same,"plasma concentration-time curve, elimination profile",[1]; both dose levels,at least a bi-phasic elimination profile
same,time of peak plasma concentration,"[1]; both dose levels, post-dose",between 10 minutes and 2 hours post-dose
same,exposure compared to the parent drug (AUC(0-inf)),[1]; following single dose administration,approximately four-fold lower
same,Cmax and AUC values versus dose,"[1]; single and multiple dose administration, 1.2 and 3.6 mg",Dose-related increases
same,Terminal elimination half-lives (summary estimate),"[1]; summary, best estimated after multiple dosing",~40 h
same,Cmax and AUC versus dose,[2]; 7.2 and 9.6 mg doses,less than proportional increase
same,Cmax and AUC versus dose,"[2]; Groups I and II, doses from 0.3-3.6 mg",dose-related increase
same,Cmax,"[2]; plasma, after 2.4 mg of delta-9-THC administered by MDI (FIGS. 6 and 7)",0.77 ng/mL
